# Target: SUV420H1 enzyme (Homo sapiens, UniProt Q4FZB7)
# Assay: TR-FRET SAH SUV420H1 enzyme inhibition assay
# Type: biochemical
# Settings: Histone Peptide H4(8-30)me1 and SAM, overnight at room temp, TR-FRET detection of SAH, read-out: TR-FRET SAH_SUV420H1 IC50
# Method in brief: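 SUV420H1 (90 nM) preincubated 30 min with compound (3-fold dilutions, 50 to 0.00075 μM), then H4(8-30)me1 peptide 5 nM and SAM 4 nM added, overnight at room temp. SAH product detected by TR-FRET with Tb anti-SAH antibody and Oregon Green-SAH in RIPA buffer, 4 h; IC50 from Hill fit, asymptotes fixed 0-100%.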
# Sequence of SUV420H1 enzyme (Q4FZB7 whole entry): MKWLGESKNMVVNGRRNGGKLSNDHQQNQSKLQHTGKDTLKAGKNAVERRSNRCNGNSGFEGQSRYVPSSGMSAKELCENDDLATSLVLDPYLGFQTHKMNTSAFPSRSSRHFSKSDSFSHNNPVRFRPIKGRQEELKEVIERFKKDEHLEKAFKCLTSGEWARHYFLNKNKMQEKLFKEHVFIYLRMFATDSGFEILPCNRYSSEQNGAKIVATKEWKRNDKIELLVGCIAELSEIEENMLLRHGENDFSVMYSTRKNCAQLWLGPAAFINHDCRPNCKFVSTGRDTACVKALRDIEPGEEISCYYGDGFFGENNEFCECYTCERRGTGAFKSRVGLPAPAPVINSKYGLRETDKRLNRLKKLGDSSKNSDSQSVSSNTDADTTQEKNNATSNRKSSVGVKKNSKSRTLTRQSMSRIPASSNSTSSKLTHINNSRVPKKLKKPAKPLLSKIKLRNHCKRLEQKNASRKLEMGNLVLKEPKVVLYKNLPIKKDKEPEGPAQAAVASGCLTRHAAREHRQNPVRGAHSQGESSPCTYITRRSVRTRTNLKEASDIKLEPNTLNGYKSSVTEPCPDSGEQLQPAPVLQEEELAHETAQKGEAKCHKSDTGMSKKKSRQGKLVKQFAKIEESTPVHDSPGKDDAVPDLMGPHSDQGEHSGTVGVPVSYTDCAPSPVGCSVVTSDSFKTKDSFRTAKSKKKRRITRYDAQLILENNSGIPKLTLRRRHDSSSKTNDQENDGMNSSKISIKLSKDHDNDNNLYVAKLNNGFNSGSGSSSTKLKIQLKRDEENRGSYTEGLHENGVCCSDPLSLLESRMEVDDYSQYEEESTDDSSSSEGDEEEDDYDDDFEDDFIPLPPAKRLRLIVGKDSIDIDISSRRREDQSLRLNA
row,SMILES,IC50 [nM]
1,"Cc1nc2c(cnn2C(C)C)cc1C(=O)NCc1cc2cc(Cl)cc(Cn3cnc4c(N)ncnc43)c2[nH]1 [Example 377, N-({7-[(6-amino-9H-purin-9-yl)methyl]-5-chloro-1H-indol-2-yl}methyl)-6-methyl-1-(propan-2-yl)-1H-pyrazolo[3,4-b]pyridine-5-carboxamide]",2710
2,"Nc1ncnc2c1ncn2Cc1cc(Cl)cc2cc(CNC(=O)C3CCCO3)[nH]c12 (centres unmarked) [Example 113, N-({7-[(6-amino-9H-purin-9-yl)methyl]-5-chloro-1H-indol-2-yl}methyl)tetrahydrofuran-2-carboxamide]",> 50000
3,"Nc1ncnc2c1ncn2Cc1cc(Cl)cc2cc(CNC(=O)C3(O)CCC3)[nH]c12 [Example 112, N-({7-[(6-amino-9H-purin-9-yl)methyl]-5-chloro-1H-indol-2-yl}methyl)-1-hydroxycyclobutanecarboxamide]",32000
4,"CC(C)c1ccccc1C(=O)NCc1cc2cc(Cl)cc(Cn3cnc4c(N)ncnc43)c2[nH]1 [Example 314, N-({7-[(6-amino-9H-purin-9-yl)methyl]-5-chloro-1H-indol-2-yl}methyl)-2-(propan-2-yl)benzamide]",1930
5,"Nc1ncnc2c1ncn2Cc1cc(Cl)cc2cc(CNC(=O)N3CCC(c4ccccc4F)C3)[nH]c12 (centres unmarked) [Example 319, N-({7-[(6-amino-9H-purin-9-yl)methyl]-5-chloro-1H-indol-2-yl}methyl)-3-(2-fluorophenyl)pyrrolidine-1-carboxamide]",3390
6,"Nc1ncnc2c1ncn2Cc1cc(Cl)cc2cc(C(N)Cc3ccccc3)[nH]c12 (centres unmarked) [Example 206, 9-{[2-(1-amino-2-phenylethyl)-5-chloro-1H-indol-7-yl]methyl}-9H-purin-6-amine]",1050
7,"Nc1ncnc2c1ncn2Cc1cc(Cl)cc2cc(CNC(=O)c3cnc4ccoc4c3)[nH]c12 [Example 340, N-({7-[(6-amino-9H-purin-9-yl)methyl]-5-chloro-1H-indol-2-yl}methyl)furo[3,2-b]pyridine-6-carboxamide]",807
8,"COc1cccc(C(=O)NCc2cc3cc(Cl)cc(Cn4cnc5c(N)ncnc54)c3[nH]2)c1 [Example 259, N-({7-[(6-amino-9H-purin-9-yl)methyl]-5-chloro-1H-indol-2-yl}methyl)-3-methoxybenzamide]",3530
9,"Nc1ncnc2c1ncn2Cc1cc(Cl)cc2cc(CNCc3cc(Cl)cc(Cl)c3)[nH]c12 [Example 212, 9-[(5-chloro-2-{[(3,5-dichlorobenzyl)amino]methyl}-1H-indol-7-yl)methyl]-9H-purin-6-amine]",3640
10,"Cn1cncc1C(=O)NCc1cc2cc(Cl)cc(Cn3cnc4c(N)ncnc43)c2[nH]1 [Example 153, N-({7-[(6-amino-9H-purin-9-yl)methyl]-5-chloro-1H-indol-2-yl}methyl)-1-methyl-1H-imidazole-5-carboxamide]",4400

# Second part, the molecule after the results:
row,IC50 [nM],SMILES
1,294,"NCc1cc2cc(-c3cccc(C(=O)NC4CC4)c3)cc(Cn3cnc4c(N)ncnc43)c2[nH]1 [Example 51, 3-{2-(aminomethyl)-7-[(6-amino-9H-purin-9-yl)methyl]-1H-indol-5-yl}-N-cyclopropylbenzamide]"
2,1170,"Cc1ccc(-c2cc(Cn3cnc4c(N)ncnc43)c3[nH]c(CN)cc3c2)cc1 [Example 30, 9-{[2-(aminomethyl)-5-(4-methylphenyl)-1H-indol-7-yl]methyl}-9H-purin-6-amine]"
3,> 50000,"Nc1ncnc2c1ncn2Cc1cc(Cl)cc2cc(CNC(=O)c3ccccc3F)[nH]c12 [Example 225, N-({7-[(6-amino-9H-purin-9-yl)methyl]-5-chloro-1H-indol-2-yl}methyl)-2-fluorobenzamide]"
4,569,"NCc1cc2c(-c3cccc(C(N)=O)c3)ccc(Cn3cnc4c(N)ncnc43)c2[nH]1 [Example 84, 3-{2-(aminomethyl)-7-[(6-amino-9H-purin-9-yl)methyl]-1H-indol-4-yl}benzamide]"
5,> 50000,"CC(=O)Nc1ccc(C(=O)NCc2cc3cc(Cl)cc(Cn4cnc5c(N)ncnc54)c3[nH]2)cc1 [Example 313, 4-(acetylamino)-N-({7-[(6-amino-9H-purin-9-yl)methyl]-5-chloro-1H-indol-2-yl}methyl)benzamide]"
6,571,"Cc1ccccc1C(=O)NCc1cc2cc(Cl)cc(Cn3cnc4c(N)ncnc43)c2[nH]1 [Example 248, N-({7-[(6-amino-9H-purin-9-yl)methyl]-5-chloro-1H-indol-2-yl}methyl)-2-methylbenzamide]"
7,4030,"C=Cc1ccc(Cn2cnc3c(N)ncnc32)c2[nH]c(CN)cc12 [Example 63, 9-{[2-(aminomethyl)-4-ethenyl-1H-indol-7-yl]methyl}-9H-purin-6-amine]"

# Reference: US9932340B2, “Substituted indoles” (AbbVie Inc., priority 2014, dated 2018)
